Laboratory results as given in article PMC9827108 (Cancer Discovery, 2022).
Where two headings read alike, the source gives them in different places.

Assays:
[1] = system: patients with EGFRm, MET-amplified/overexpressed NSCLC; assay type: in vivo, human
[2] = assay type: in vivo, human; conditions: Parts B and D

Structure (SMILES)	Any AE grade ≥3 possibly causally related to the labelled drug(s) only ([1]; All Part B)	Any AE leading to discontinuation of the labelled drug ([1]; All Part B)	Any AE leading to interruption or reduction of the labelled drug ([1]; All Part B)	Any SAE leading to discontinuation of the labelled drug ([1]; All Part B)	Any SAE leading to interruption or reduction of the labelled drug ([1]; All Part B)	Any SAE possibly causally related to the labelled drug(s) only ([1]; All Part B)	Labelled drug discontinued due to possibly causally related AE: vomiting ([1]; All Part B)	Any AE grade ≥3 possibly causally related to the labelled drug(s) only ([1]; Part B1)	Any AE leading to discontinuation of the labelled drug ([1]; Part B1)	Any AE leading to interruption or reduction of the labelled drug ([1]; Part B1)	Any SAE leading to discontinuation of the labelled drug ([1]; Part B1)	Any SAE leading to interruption or reduction of the labelled drug ([1]; Part B1)	Any SAE possibly causally related to the labelled drug(s) only ([1]; Part B1)	Any AE grade ≥3 possibly causally related to the labelled drug(s) only ([1]; Part B2)	Any AE leading to discontinuation of the labelled drug ([1]; Part B2)	Any AE leading to interruption or reduction of the labelled drug ([1]; Part B2)	Any SAE leading to discontinuation of the labelled drug ([1]; Part B2)	Any SAE leading to interruption or reduction of the labelled drug ([1]; Part B2)	Any SAE possibly causally related to the labelled drug(s) only ([1]; Part B2)	Any AE grade ≥3 possibly causally related to the labelled drug(s) only ([1]; Part B3)	other results
C=CC(=O)Nc1cc(Nc2nccc(-c3cn(C)c4ccccc34)n2)c(OC)cc1N(C)CCN(C)C [osimertinib]	8 (6) n (%)	24 (17) n (%)	59 (43%) n (%)	20 (14) n (%)	27 (20) n (%)	0 n (%)	2 (1%) n (%)	3 (4) n (%)	12 (17) n (%)	22 (32) n (%)	9 (13) n (%)	10 (14) n (%)	0 n (%)	3 (6) n (%)	9 (18) n (%)	25 (49) n (%)	8 (16) n (%)	11 (22) n (%)	0 n (%)	2 (11) n (%)	Labelled drug discontinued due to possibly causally related AE: pneumonitis ([1]; All Part B): 3 (2%) n (%); Any AE leading to interruption or reduction of the labelled drug ([1]; All Part B, listed as Osimertinib): 59 (43) n (%); Any AE leading to discontinuation of the labelled drug ([1]; Part B3): 3 (17) n (%); Any AE leading to interruption or reduction of the labelled drug ([1]; Part B3): 12 (67) n (%); Any SAE leading to discontinuation of the labelled drug ([1]; Part B3): 3 (17) n (%); Any SAE leading to interruption or reduction of the labelled drug ([1]; Part B3): 6 (33) n (%); Any SAE possibly causally related to the labelled drug(s) only ([1]; Part B3): 0 n (%); Any AE grade ≥3 possibly causally related to the labelled drug(s) only ([1]; Part D): 2 (5) n (%); Any AE leading to discontinuation of the labelled drug ([1]; Part D): 8 (19) n (%); Any AE leading to interruption or reduction of the labelled drug ([1]; Part D): 13 (31) n (%); Any SAE leading to discontinuation of the labelled drug ([1]; Part D): 2 (5) n (%); Any SAE leading to interruption or reduction of the labelled drug ([1]; Part D): 10 (24) n (%); Any SAE possibly causally related to the labelled drug(s) only ([1]; Part D): 1 (2) n (%)
C[C@@H](c1ccc2nccn2c1)n1nnc2ncc(-c3cnn(C)c3)nc21 [savolitinib, (S)-1-(1-(Imidazo[1,2-a]pyridin-6-yl)ethyl)-6-(1-methyl-1H-pyrazol-4-yl)-1H-[1,2, 3]triazolo[4,5-b]pyrazine]	34 (25) n (%)	49 (36) n (%)	61 (44%) n (%)	28 (20) n (%)	20 (14) n (%)	15 (11) n (%)	4 (3%) n (%)	14 (20) n (%)	19 (28) n (%)	27 (39) n (%)	11 (16) n (%)	9 (13) n (%)	6 (9) n (%)	13 (25) n (%)	20 (39) n (%)	25 (49) n (%)	11 (22) n (%)	9 (18) n (%)	6 (12) n (%)	7 (39) n (%)	Any AE leading to interruption or reduction of the labelled drug ([1]; All Part B, listed as Savolitinib): 61 (44) n (%); Deaths due to AEs considered possibly causally related to study drug ([1]; Part B2): one case was considered possibly related to savolitinib (acute renal failure); Any AE leading to discontinuation of the labelled drug ([1]; Part B3): 10 (56) n (%); Any AE leading to interruption or reduction of the labelled drug ([1]; Part B3): 9 (50) n (%); Any SAE leading to discontinuation of the labelled drug ([1]; Part B3): 6 (33) n (%); Any SAE leading to interruption or reduction of the labelled drug ([1]; Part B3): 2 (11) n (%); Any SAE possibly causally related to the labelled drug(s) only ([1]; Part B3): 3 (17) n (%); Any AE grade ≥3 possibly causally related to the labelled drug(s) only ([1]; Part D): 5 (12) n (%); Any AE leading to discontinuation of the labelled drug ([1]; Part D): 15 (36) n (%); Any AE leading to interruption or reduction of the labelled drug ([1]; Part D): 16 (38) n (%); Any SAE leading to discontinuation of the labelled drug ([1]; Part D): 6 (14) n (%); Any SAE leading to interruption or reduction of the labelled drug ([1]; Part D): 7 (17) n (%); Any SAE possibly causally related to the labelled drug(s) only ([1]; Part D): 2 (5) n (%); Labelled drug discontinued due to possibly causally related AE: myalgia ([1]; Part D): 3 (7%) n (%); Labelled drug discontinued due to possibly causally related AE: pyrexia ([1]; Part D): 2 (5%) n (%); Labelled drug discontinued due to possibly causally related AE: rash ([1]; Part D): 2 (5%) n (%); Accumulation and time dependence of PK at steady state ([2]; multiple dosing): neither apparent accumulation nor time-dependent PK changes upon multiple dosing; half-life ([2]; human, plasma, oral, Mean terminal elimination half-life (t1/2λz), single and multiple dosing): 2 to 4 h; Tmax ([2]; human, plasma, oral, Median tmax and tssmax, savolitinib 600 mg/300 mg q.d. + osimertinib 80 mg q.d.): 2 to 4 h
